Broadly, the AC50 is the concentration at which the activity in the assay is half-maximal.

This note sets out measurements from ChEMBL document CHEMBL5291721, “A preclinical secondary pharmacology resource illuminates target-adverse drug reaction associations of marketed drugs” (Nat Commun, 2023).

One experiment deals with Acetylcholinesterase (Homo sapiens, UniProt P22303). In kind it is functional.
The next experiment has as its target T1, Adenosine receptor A3 (Homo sapiens, UniProt P0DMS8).
T1 sequence (P0DMS8 whole entry): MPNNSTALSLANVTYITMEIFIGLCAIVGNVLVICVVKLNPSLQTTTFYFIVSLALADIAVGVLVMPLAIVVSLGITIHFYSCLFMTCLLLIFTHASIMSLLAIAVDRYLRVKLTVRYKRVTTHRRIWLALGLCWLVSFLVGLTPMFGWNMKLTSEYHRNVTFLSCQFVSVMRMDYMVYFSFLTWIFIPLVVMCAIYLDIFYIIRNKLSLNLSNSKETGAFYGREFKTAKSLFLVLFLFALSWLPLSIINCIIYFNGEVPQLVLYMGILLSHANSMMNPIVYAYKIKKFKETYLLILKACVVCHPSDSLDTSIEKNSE

The target in experiment [1] is T2, Alpha-2A adrenergic receptor (Homo sapiens, UniProt P08913).
T2 sequence (P08913 whole entry): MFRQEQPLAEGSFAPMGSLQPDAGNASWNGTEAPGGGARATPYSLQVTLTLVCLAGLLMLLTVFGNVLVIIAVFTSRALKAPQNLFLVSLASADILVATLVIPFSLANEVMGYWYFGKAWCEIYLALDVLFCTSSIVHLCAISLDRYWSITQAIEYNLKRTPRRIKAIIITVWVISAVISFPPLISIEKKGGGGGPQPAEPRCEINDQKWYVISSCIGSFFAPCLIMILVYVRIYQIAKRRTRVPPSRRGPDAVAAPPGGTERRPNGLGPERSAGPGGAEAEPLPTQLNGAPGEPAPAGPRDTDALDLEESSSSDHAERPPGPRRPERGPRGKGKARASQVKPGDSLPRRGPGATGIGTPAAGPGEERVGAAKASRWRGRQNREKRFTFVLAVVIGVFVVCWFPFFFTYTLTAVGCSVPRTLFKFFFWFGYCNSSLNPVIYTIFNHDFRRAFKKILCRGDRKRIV

In experiment [2] the target is T3, Muscarinic acetylcholine receptor M2 (Homo sapiens, UniProt P08172).
T3 sequence (P08172 whole entry): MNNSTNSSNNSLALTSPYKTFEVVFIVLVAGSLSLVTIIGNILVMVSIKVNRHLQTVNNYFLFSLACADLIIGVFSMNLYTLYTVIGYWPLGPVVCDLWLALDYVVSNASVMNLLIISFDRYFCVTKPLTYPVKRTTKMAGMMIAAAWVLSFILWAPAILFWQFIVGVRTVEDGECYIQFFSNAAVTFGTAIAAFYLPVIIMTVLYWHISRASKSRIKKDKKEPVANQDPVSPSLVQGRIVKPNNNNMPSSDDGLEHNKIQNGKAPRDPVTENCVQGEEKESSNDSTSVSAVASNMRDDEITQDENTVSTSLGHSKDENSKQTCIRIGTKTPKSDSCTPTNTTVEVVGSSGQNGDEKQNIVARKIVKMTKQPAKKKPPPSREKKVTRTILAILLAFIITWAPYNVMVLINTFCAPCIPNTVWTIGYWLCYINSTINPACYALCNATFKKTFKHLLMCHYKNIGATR

The next experiment has as its target Prothrombin (Homo sapiens, UniProt P00734). The format is functional.
In another experiment the target is Histamine H3 receptor (Homo sapiens, UniProt Q9Y5N1).
For experiment [3], the target named is 5-hydroxytryptamine receptor 2B (Homo sapiens, UniProt P41595). In kind it is functional, cell-based.
Experiment [4] deals with Voltage-gated inwardly rectifying potassium channel KCNH2 (Homo sapiens, UniProt Q12809). In kind it is functional. The conditions noted are these: read-out: AC50.
In experiment [5] the target is Vascular endothelial growth factor receptor 2 (Homo sapiens, UniProt P35968). In kind it is functional.
Experiment [6] concerns the target T4, Amine oxidase [flavin-containing] A (Homo sapiens, UniProt P21397).
T4 sequence (P21397 whole entry): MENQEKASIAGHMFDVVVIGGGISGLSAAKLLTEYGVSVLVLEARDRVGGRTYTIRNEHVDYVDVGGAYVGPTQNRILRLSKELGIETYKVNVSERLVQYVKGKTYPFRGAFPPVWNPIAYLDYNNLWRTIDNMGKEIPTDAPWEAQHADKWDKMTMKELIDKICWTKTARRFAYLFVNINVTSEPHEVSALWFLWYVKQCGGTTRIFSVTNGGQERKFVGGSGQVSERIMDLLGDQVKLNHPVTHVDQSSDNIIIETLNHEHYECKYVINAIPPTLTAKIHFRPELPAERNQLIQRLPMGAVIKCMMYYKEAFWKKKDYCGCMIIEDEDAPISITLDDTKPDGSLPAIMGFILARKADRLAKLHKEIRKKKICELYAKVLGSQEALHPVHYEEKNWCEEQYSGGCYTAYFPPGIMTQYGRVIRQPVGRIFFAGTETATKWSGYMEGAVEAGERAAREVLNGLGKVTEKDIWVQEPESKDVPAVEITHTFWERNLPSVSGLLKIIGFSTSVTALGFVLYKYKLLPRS
In kind it is functional.

A further experiment concerns the target Mu-type opioid receptor (Homo sapiens, UniProt P35372).
Experiment [7] has as its target cGMP-inhibited 3',5'-cyclic phosphodiesterase 3A (Homo sapiens, UniProt Q14432). The format is functional.
Experiment [8] has as its target T5, Prostaglandin G/H synthase 1 (Homo sapiens, UniProt P23219). The format is functional.
The target of experiment [9] is T5, Prostaglandin G/H synthase 1. The format is functional. This is another data set of the same source.
In a further experiment the target is T6, Thromboxane A2 receptor (Homo sapiens, UniProt P21731).
T6 sequence (P21731 whole entry): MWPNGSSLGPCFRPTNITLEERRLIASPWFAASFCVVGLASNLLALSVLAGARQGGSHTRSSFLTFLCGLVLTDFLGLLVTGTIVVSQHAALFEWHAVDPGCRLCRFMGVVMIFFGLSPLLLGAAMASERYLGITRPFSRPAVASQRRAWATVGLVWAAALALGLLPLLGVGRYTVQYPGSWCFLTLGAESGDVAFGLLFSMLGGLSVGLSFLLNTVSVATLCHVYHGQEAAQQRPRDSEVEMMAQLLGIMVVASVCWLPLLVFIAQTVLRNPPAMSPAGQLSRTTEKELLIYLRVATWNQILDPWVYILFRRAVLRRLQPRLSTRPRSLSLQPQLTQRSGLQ
In kind it is functional, cell-based.

Where only a bound is given, the exact number is not on record here.
Further: assay procedure not described here.

T5 sequence (P23219 whole entry): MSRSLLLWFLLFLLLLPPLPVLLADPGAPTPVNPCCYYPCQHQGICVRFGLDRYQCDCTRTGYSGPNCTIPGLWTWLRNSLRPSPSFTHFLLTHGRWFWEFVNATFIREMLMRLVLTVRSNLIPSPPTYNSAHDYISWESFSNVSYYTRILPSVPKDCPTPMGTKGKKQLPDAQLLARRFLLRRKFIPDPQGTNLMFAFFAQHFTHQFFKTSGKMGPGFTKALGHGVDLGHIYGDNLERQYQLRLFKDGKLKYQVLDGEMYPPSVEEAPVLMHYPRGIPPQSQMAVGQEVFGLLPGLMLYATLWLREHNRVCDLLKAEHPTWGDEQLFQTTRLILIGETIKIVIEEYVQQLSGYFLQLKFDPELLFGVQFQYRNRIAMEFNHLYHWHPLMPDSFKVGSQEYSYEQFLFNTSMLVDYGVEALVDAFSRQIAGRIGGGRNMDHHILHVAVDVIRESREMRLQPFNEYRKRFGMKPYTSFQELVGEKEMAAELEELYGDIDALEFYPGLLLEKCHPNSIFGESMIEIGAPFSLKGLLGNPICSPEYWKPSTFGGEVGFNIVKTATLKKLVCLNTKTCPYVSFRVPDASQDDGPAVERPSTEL
Vascular endothelial growth factor receptor 2, sequence (P35968 whole entry): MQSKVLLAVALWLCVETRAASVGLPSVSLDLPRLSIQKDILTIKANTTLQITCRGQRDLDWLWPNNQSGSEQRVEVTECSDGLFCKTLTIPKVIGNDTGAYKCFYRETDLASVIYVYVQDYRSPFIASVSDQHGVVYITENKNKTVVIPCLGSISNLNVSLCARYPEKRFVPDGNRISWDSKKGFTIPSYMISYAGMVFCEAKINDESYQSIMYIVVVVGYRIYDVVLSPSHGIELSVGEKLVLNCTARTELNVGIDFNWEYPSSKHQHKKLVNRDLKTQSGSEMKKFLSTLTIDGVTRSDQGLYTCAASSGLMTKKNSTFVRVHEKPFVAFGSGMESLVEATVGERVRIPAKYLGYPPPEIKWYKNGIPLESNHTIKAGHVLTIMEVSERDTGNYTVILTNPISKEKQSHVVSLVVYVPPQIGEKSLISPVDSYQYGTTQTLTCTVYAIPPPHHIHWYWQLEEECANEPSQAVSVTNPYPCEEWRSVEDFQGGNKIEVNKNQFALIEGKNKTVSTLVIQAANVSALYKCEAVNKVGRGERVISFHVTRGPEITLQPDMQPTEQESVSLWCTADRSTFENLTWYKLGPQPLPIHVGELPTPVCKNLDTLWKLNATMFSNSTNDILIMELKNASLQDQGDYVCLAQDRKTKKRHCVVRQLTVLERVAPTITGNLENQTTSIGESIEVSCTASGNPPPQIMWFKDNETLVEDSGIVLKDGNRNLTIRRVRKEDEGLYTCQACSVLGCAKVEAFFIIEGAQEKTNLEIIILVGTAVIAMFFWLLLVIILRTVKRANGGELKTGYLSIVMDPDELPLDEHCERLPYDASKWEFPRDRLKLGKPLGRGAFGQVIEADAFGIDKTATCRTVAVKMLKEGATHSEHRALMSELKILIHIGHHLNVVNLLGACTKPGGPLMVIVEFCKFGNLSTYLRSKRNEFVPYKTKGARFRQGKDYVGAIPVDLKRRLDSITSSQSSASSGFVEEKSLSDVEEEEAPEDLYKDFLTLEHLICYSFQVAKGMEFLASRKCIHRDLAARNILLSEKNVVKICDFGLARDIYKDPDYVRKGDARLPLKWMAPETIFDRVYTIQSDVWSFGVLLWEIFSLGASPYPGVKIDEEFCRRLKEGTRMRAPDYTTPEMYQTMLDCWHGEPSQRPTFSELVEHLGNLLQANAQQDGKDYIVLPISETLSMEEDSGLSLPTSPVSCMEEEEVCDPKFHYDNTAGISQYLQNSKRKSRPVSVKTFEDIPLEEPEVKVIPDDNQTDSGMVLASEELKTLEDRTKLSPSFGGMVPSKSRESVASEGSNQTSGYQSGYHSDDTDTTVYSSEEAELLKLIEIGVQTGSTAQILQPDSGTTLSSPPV
Acetylcholinesterase, sequence (P22303 whole entry): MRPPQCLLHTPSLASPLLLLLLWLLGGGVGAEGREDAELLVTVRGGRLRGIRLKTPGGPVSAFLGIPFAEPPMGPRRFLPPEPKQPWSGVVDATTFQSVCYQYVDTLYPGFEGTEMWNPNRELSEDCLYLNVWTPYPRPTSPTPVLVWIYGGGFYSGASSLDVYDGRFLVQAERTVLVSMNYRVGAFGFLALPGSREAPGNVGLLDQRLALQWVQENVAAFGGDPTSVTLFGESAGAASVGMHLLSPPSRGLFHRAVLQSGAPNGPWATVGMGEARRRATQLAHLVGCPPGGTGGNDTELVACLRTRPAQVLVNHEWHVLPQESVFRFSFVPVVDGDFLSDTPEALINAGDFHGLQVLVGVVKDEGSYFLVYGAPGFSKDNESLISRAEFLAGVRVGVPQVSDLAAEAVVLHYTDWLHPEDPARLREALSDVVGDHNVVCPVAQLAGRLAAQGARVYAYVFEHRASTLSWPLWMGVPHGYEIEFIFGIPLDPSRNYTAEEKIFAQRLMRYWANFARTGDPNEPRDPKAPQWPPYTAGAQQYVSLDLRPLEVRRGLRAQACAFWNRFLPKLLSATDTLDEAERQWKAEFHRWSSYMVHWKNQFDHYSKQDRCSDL
cGMP-inhibited 3',5'-cyclic phosphodiesterase 3A, sequence (Q14432 whole entry): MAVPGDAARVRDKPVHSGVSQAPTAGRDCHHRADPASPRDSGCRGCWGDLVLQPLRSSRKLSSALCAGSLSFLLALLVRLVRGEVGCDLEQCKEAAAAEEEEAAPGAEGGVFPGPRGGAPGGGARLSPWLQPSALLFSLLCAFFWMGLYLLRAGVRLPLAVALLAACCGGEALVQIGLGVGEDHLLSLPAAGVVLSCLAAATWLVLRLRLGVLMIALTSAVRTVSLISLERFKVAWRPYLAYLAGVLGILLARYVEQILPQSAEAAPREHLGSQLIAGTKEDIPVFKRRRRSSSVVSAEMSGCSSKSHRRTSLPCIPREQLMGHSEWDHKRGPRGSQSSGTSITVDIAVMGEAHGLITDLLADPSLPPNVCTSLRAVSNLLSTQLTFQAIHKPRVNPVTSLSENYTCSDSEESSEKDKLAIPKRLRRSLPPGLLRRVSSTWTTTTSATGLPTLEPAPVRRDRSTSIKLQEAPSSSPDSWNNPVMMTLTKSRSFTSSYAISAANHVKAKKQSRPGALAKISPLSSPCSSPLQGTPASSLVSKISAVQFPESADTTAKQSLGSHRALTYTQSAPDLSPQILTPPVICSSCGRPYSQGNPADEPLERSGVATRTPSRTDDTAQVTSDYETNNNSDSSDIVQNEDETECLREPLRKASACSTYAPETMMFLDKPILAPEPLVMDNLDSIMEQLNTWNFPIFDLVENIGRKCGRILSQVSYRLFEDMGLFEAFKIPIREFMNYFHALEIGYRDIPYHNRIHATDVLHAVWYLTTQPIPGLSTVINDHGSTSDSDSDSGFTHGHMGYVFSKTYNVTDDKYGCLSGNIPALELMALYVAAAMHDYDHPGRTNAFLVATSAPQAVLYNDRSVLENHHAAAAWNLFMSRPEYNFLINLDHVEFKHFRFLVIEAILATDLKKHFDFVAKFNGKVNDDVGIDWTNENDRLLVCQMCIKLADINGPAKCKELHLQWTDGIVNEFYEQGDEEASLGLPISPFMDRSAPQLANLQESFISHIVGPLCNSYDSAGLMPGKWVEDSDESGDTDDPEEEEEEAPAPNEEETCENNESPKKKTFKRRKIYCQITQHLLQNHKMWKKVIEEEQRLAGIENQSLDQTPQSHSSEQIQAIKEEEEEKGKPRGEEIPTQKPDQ
5-hydroxytryptamine receptor 2B, sequence (P41595 whole entry): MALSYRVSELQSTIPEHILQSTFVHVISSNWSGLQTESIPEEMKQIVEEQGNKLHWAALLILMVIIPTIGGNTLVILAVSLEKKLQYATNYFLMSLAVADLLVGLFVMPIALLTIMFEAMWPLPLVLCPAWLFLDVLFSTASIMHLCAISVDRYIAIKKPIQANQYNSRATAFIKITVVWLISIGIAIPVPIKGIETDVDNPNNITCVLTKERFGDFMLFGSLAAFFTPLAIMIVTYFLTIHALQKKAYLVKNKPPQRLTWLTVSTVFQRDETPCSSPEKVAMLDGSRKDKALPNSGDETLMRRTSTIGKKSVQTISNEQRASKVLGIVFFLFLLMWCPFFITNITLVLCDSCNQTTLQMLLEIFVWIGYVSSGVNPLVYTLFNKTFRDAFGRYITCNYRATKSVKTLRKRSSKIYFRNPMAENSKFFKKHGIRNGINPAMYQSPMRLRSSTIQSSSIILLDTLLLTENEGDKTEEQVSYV
Mu-type opioid receptor, sequence (P35372 whole entry): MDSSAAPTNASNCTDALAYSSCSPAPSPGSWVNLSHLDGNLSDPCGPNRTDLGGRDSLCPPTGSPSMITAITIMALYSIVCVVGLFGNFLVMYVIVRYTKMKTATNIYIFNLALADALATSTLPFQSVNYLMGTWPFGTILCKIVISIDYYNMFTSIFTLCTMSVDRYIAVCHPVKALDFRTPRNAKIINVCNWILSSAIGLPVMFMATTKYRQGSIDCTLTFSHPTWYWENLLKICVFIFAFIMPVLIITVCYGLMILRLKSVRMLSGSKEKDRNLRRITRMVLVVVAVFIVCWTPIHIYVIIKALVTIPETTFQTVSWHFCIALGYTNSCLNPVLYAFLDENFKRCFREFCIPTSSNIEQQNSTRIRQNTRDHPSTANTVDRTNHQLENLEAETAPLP
Histamine H3 receptor, sequence (Q9Y5N1 whole entry): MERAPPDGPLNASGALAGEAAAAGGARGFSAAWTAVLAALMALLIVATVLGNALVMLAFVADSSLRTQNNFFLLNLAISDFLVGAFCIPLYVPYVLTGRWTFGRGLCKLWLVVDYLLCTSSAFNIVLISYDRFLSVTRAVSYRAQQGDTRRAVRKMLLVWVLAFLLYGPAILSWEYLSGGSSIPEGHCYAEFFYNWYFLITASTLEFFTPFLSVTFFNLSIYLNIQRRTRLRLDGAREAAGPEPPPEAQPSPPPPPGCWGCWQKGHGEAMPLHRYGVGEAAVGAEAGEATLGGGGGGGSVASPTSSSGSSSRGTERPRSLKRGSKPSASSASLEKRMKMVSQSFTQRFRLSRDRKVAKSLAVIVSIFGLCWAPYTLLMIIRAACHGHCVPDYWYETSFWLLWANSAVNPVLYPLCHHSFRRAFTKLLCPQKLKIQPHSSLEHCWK

For `CC(C)(C)C(=O)C(Oc1ccc(Cl)cc1)n1ccnc1` (stereo not given) [CLIMBAZOLE], the AC50 on Acetylcholinesterase is over 30 µM; on Adenosine receptor A3 it was 20.2 µM; in [1], over 30 µM; in [2], over 30 µM; at Prothrombin, over 30 µM; on Histamine H3 receptor, over 30 µM. Moreover, the AC50 (in [3]; in [4]; in experiment [5]; in experiment [6]; at Mu-type opioid receptor; in [7]) was over 30 µM in each case. Moreover, the AC50 (in [8]; in [9]; at Thromboxane A2 receptor) was over 30 µM each time.

Turning to `NC1CCN(c2c(F)cc3c(=O)c(C(=O)O)cn(C4CC4)c3c2Cl)C1` (stereo not given) [CLINAFLOXACIN], the concentration at half-maximal activity (AC50) was over 30 µM on Acetylcholinesterase; over 30 µM on Adenosine receptor A3; over 30 µM in experiment [1]; 5.08 µM in experiment [2]; over 30 µM at Prothrombin; over 30 µM at Histamine H3 receptor. Also, the AC50 in [3] is over 30 µM; in experiment [4], over 30 µM; in experiment [5] it was over 30 µM; in [6] it was over 30 µM; at Mu-type opioid receptor it was 4.91 µM; in experiment [7] it was over 30 µM. The AC50 (in experiment [8]; in experiment [9]; on Thromboxane A2 receptor) was over 30 µM in each case.

With `CC(C)(C)CC(C)(C)c1ccc(O)c(Cc2ccc(Cl)cc2Cl)c1` [CLOFOCTOL], the half-maximal activity concentration (AC50) is over 30 µM on Acetylcholinesterase; 1.12 µM at Adenosine receptor A3; over 30 µM in [1]; over 10 µM in experiment [2]; over 30 µM on Prothrombin; over 30 µM on Histamine H3 receptor. Further, the AC50 in [3] was over 30 µM; in [4], 11 µM; in [5], over 30 µM; in experiment [6], over 30 µM; on Mu-type opioid receptor, 22 µM; in experiment [7] it was 5.81 µM. Also, the AC50 in experiment [8] is 2.56 µM; in experiment [9] it was 29.2 µM; on Thromboxane A2 receptor it was over 30 µM.

For `Clc1ccc(C(OCCN2CCCCC2)c2ccccc2)cc1` (stereo not given) [CLOPERASTINE], the half-maximal activity concentration (AC50) on Acetylcholinesterase is over 30 µM; at Adenosine receptor A3 it was over 30 µM; in experiment [1], 2.72 µM; in [2] it was 0.331 µM; at Prothrombin, over 30 µM; at Histamine H3 receptor, over 30 µM. For the same molecule, the AC50 in experiment [3] was over 30 µM; in experiment [4], 0.2 µM; in experiment [5] it was over 30 µM; in [6], over 30 µM; at Mu-type opioid receptor it was 13.6 µM; in experiment [7], over 30 µM. For the same molecule, the AC50 (in experiment [8]; in experiment [9]; on Thromboxane A2 receptor) was over 30 µM in each case.

In the case of `CCOc1ccc(Cc2cc([C@@H]3O[C@H](CO)[C@@H](O)[C@H](O)[C@H]3O)ccc2Cl)cc1` [DAPAGLIFLOZIN], the half-maximal activity concentration (AC50) (on Acetylcholinesterase; on Adenosine receptor A3; in experiment [1]; in experiment [2]; at Prothrombin; on Histamine H3 receptor) was over 30 µM throughout. For the same molecule, the AC50 (in [3]; in [4]; in [5]; in [6]; at Mu-type opioid receptor; in [7]) was over 30 µM each time. Also, the AC50 (in [8]; in experiment [9]; on Thromboxane A2 receptor) was over 30 µM in each case.

`CC(=O)OCC(=O)[C@@]1(O)CC[C@H]2[C@@H]3CCC4=CC(=O)C=C[C@]4(C)[C@@]3(Cl)[C@@H](Cl)C[C@@]21C` [DICHLORISONE ACETATE]: the half-maximal activity concentration (AC50) (at Acetylcholinesterase; on Adenosine receptor A3; in [1]; in experiment [2]; at Prothrombin; at Histamine H3 receptor) was over 30 µM each time. Moreover, the AC50 (in experiment [3]; in experiment [4]; in [5]; in [6]; on Mu-type opioid receptor; in [7]) was over 30 µM throughout. Further, the concentration at half-maximal activity (AC50) (in experiment [8]; in experiment [9]; at Thromboxane A2 receptor) was over 30 µM in each case.

Regarding `NNc1nnc(NN)c2ccccc12` [DIHYDRALAZINE], the AC50 at Acetylcholinesterase was over 30 µM; on Adenosine receptor A3, 0.197 µM; in [1] it was over 30 µM; in experiment [2] it was over 30 µM; on Prothrombin, over 30 µM; at Histamine H3 receptor it was over 30 µM. Further, the concentration at half-maximal activity (AC50) in experiment [3] is over 30 µM; in experiment [4], 0.44 µM; in experiment [5], over 30 µM; in experiment [6], 26.4 µM; on Mu-type opioid receptor, 25.6 µM; in experiment [7] it was over 30 µM. Besides, the concentration at half-maximal activity (AC50) in experiment [8] is 0.344 µM; in experiment [9], 0.434 µM; at Thromboxane A2 receptor it was over 30 µM.

Turning to `CC(C)C[C@H]1C(=O)N2CCC[C@H]2[C@]2(O)O[C@](NC(=O)[C@@H]3C[C@@H]4c5cccc6[nH]cc(c56)C[C@H]4N(C)C3)(C(C)C)C(=O)N12` [DIHYDROERGOCRYPTINE], the half-maximal activity concentration (AC50) on Acetylcholinesterase is over 30 µM; at Adenosine receptor A3 it was over 30 µM; in experiment [1], 0.847 µM; in experiment [2] it was over 30 µM; on Prothrombin, over 30 µM; at Histamine H3 receptor it was over 30 µM. The AC50 in [3] is over 30 µM; in experiment [4], over 30 µM; in [5] it was over 30 µM; in [6], over 30 µM; on Mu-type opioid receptor, 10.3 µM; in experiment [7] it was over 30 µM. Further, the values for the half-maximal activity concentration (AC50) (in experiment [8]; in experiment [9]; at Thromboxane A2 receptor) were 18.4 µM, 27.4 µM and over 30 µM, respectively.
